Measurements taken from patent US12421254B2, “KRAS modulators and uses thereof” (Quanta Therapeutics, Inc., priority 2023, dated 2025).

How the values were obtained:
[1] = molecular target: GST-tagged KRAS-G12D (2-169) (Homo sapiens, UniProt P01116, G12D); experiment: Nucleotide exchange assay (NEA), SOS-mediated, HTRF, KRAS G12D; format: biochemical; conditions: Table 4; IC50 extracted at 30 min; 20 nM SOScat; read-out: NEA G12D IC50
Summary of the method: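 Compound preincubated 1 h at RT with 0.25 nM GST-KRAS-G12D (2-169) and anti-GST Tb donor, then 20 nM SOS1cat (564-1049) and 150 nM GTP-DY-647P1 added; pH 7.3 HEPES buffer with MgCl2 and DTT. HTRF monitored at RT; % inhibition versus DMSO and no-SOS blank, 4-parameter IC50 taken at 30 min.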

[2] = molecular target: GST-tagged KRAS-G12V (2-169) (Homo sapiens, UniProt P01116, G12V); experiment: Nucleotide exchange assay (NEA), SOS-mediated, HTRF, KRAS G12V; format: biochemical; conditions: Table 4; IC50 extracted at 90 min; 80 nM SOS
Sequence of GST-tagged KRAS-G12V (2-169) (P01116 2-169 isoform P01116-2 G12V): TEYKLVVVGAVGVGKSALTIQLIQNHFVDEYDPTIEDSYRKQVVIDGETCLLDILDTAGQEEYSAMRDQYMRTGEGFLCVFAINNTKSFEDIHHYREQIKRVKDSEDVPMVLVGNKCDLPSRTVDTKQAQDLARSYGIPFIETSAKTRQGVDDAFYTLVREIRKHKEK
Summary of the method: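 GST-KRAS-G12V (2-169), 0.25 nM, pre-incubated 1 h at RT with compound, then SOS1cat (564-1049) 80 nM and GTP-DY-647P1 150 nM added in HEPES pH 7.3 buffer with MgCl2 and DTT. HTRF via anti-GST Tb cryptate read over 90 min; IC50 from 4-parameter fit at 90 min, blanked to no-SOS reactions.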

[3] = system: phospho-ERK in GP2D (KRAS-G12D) cells; experiment: pERK In Cell Western (ICW) assay (Method B), GP2D; format: cell-based
Summary of the method: (§1)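 Here IC50 reflects phospho-ERK suppression after 3 h compound exposure at 37 °C in cells grown in 10% FBS medium. Signal is normalized to DRAQ5 DNA stain and to blank control wells.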

[4] = system: phospho-ERK in SW620 (KRAS-G12V) cells; experiment: pERK In Cell Western (ICW) assay (Method B), SW620; format: cell-based; conditions: Homo sapiens, SW-620, 3 h, Table 4
Summary of the method: as §1

Sequence of GST-tagged KRAS-G12D (2-169) (P01116 2-169 isoform P01116-2 G12D): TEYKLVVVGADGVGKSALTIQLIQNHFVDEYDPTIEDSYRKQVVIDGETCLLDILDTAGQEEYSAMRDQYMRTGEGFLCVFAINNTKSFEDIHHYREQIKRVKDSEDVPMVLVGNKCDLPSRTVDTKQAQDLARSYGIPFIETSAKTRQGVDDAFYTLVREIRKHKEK

Which IC50 [1] does the source give for `C[C@]1(CO)C[C@@H](O)CN1c1nc(OC[C@@]23CCCN2C[C@H](F)C3)nc(N2CC3(CCc4sc(N)c(C#N)c43)C2)n1` [Compound 58, 2-amino-1′-[4-[[(2R,8S)-2-fluoro-1,2,3,5,6,7-hexahydropyrrolizin-8-yl]methoxy]-6-[(2R,4R)-4-hydroxy-2-(hydroxymethyl)-2-methyl-pyrrolidin-1-yl]-1,3,5-triazin-2-yl]spiro[5,6-dihydrocyclopenta[b]thiophene-4,3′-azetidine]-3-carbonitrile] here?
The IC50 was 10 to 100 nM.

What about the IC50 [2] of the same compound?
The IC50 was 10 to 100 nM.

What about the IC50 ([3]; GP2d, 3 h, Table 4) of the same compound?
Its IC50 is 1000 to 20000 nM.

And the IC50 [4]?
Its IC50 is 1000 to 20000 nM.

How did the IC50 [1] turn out when `N#Cc1c(N)sc2c1C1(CN(c3nc(OC[C@@]45CCCN4C[C@H](F)C5)nc(N4CC(=O)Nc5ncccc5C4)n3)C1)SC2` [Compound 189, 2-amino-1′-[4-[[(2R,8S)-2-fluoro-1,2,3,5,6,7-hexahydropyrrolizin-8-yl]methoxy]-6-(2-oxo-3,5-dihydro-1H-pyrido[2,3-e][1,4]diazepin-4-yl)-1,3,5-triazin-2-yl]spiro[6H-thieno[3,4-b]thiophene-4,3′-azetidine]-3-carbonitrile] was run?
The IC50 was 100 to 1000 nM.

What about the IC50 [2] of the same compound?
Its IC50 is 10 to 100 nM.

What about the IC50 ([3]; GP2d, 3 h, Table 4) of the same compound?
Its IC50 is 1000 to 20000 nM.

And the IC50 [4]?
The IC50 was 1000 to 20000 nM.

`N#CCC1(O)CCCN(c2nc(OCC3(CN4CCOCC4)CC3)nc(N3CC4(CCc5sc(N)c(C#N)c54)C3)n2)C1` (stereo not drawn) [Compound 101, 2-amino-1′-[4-[3-(cyanomethyl)-3-hydroxy-1-piperidyl]-6-[[1-(morpholinomethyl)cyclopropyl]methoxy]-1,3,5-triazin-2-yl]spiro[5,6-dihydrocyclopenta[b]thiophene-4,3′-azetidine]-3-carbonitrile] was tested. Which IC50 [1] did it give?
Its IC50 is 10 to 100 nM.

And the IC50 [2]?
Its IC50 is less than 10 nM.

And the IC50 ([3]; GP2d, 3 h, Table 4)?
The IC50 was 100 to 1000 nM.

And the IC50 [4]?
Its IC50 is 1000 to 20000 nM.

`C[C@@]1(O)CCCN(c2nc(OCC3(CN4CCOCC4)CC3)nc(N3CC4(C3)SCc3sc(N)c(C#N)c34)n2)C1` [Compound 73, 2-amino-1′-[4-[(3R)-3-hydroxy-3-methyl-1-piperidyl]-6-[[1-(morpholinomethyl)cyclopropyl]methoxy]-1,3,5-triazin-2-yl]spiro[6H-thieno[2,3-c]thiophene-4,3′-azetidine]-3-carbonitrile] was tested. Which IC50 [1] did it give?
Its IC50 is less than 10 nM.

What about the IC50 [2] of the same compound?
The IC50 was less than 10 nM.

And the IC50 ([3]; GP2d, 3 h, Table 4)?
Its IC50 is 10 to 100 nM.

And the IC50 [4]?
The IC50 was 10 to 100 nM.

`C[C@H](c1cccnc1N)N(CCC#N)c1nc(OCC2(CN3CCOCC3)CC2)nc(N2CC3(C2)SCc2sc(N)c(C#N)c23)n1` [Compound 148, (R)-2′-amino-1-(4-((1-(2-aminopyridin-3-yl)ethyl)(2-cyanoethyl)amino)-6-((1-(morpholinomethyl)cyclopropyl)methoxy)-1,3,5-triazin-2-yl)-6′H-spiro[azetidine-3,4′-thieno[3,4-b]thiophene]-3′-carbonitrile] was tested. Which IC50 [1] did it give?
The IC50 was less than 10 nM.

And the IC50 [2]?
Its IC50 is less than 10 nM.

And the IC50 ([3]; GP2d, 3 h, Table 4)?
Its IC50 is 10 to 100 nM.

What about the IC50 [4] of the same compound?
The IC50 was less than 10 nM.

For `N#CCC1C=C(F)CN(c2nc(OCC3(CN4CCOCC4)CC3)nc(N3CC4(CCc5sc(N)c(C#N)c54)C3)n2)C1` (stereo not drawn) [Compound 65, 2-amino-1′-[4-[3-(cyanomethyl)-5-fluoro-3,6-dihydro-2H-pyridin-1-yl]-6-[[1-(morpholinomethyl)cyclopropyl]methoxy]-1,3,5-triazin-2-yl]spiro[5,6-dihydrocyclopenta[b]thiophene-4,3′-azetidine]-3-carbonitrile], which IC50 [1] is on record?
Its IC50 is 100 to 1000 nM.

And the IC50 [2]?
Its IC50 is 10 to 100 nM.

What about the IC50 ([3]; GP2d, 3 h, Table 4) of the same compound?
Its IC50 is 1000 to 20000 nM.

And the IC50 [4]?
The IC50 was 1000 to 20000 nM.

With `C[C@@]1(O)CCCN(c2nc(OCC3(CN4CCOCC4)CC3)nc(N3CC4(C3)c3c(sc(N)c3C#N)CC4F)n2)C1` (stereo partly drawn) [Compound 61, 2-amino-5-fluoro-1′-[4-[(3R)-3-hydroxy-3-methyl-1-piperidyl]-6-[[1-(morpholinomethyl)cyclopropyl]methoxy]-1,3,5-triazin-2-yl]spiro[5,6-dihydrocyclopenta[b]thiophene-4,3′-azetidine]-3-carbonitrile] as the compound, how does the IC50 [1] read?
The IC50 was less than 10 nM.

And the IC50 [2]?
The IC50 was 10 to 100 nM.

What about the IC50 ([3]; GP2d, 3 h, Table 4) of the same compound?
Its IC50 is 10 to 100 nM.

And the IC50 [4]?
The IC50 was 100 to 1000 nM.

What does the source list for `C[C@]1(O)CN(c2nc(OC[C@@]34CCCN3C[C@H](F)C4)nc(N3CC4(CCc5sc(N)c(C#N)c54)C3)n2)CC[C@@H]1O` (racemic) [Compound 62, 2-amino-1′-[4-[rac-(3S,4S)-3,4-dihydroxy-3-methyl-1-piperidyl]-6-[[(2R,8S)-2-fluoro-1,2,3,5,6,7-hexahydropyrrolizin-8-yl]methoxy]-1,3,5-triazin-2-yl]spiro[5,6-dihydrocyclopenta[b]thiophene-4,3′-azetidine]-3-carbonitrile]?
IC50 [1]: 100 to 1000 nM; IC50 [2]: 100 to 1000 nM; IC50 ([3]; GP2d, 3 h, Table 4): ≥ 20000 nM; IC50 [4]: ≥ 20000 nM

For `N#Cc1c(N)sc2c1C1(CC2)CN(c2nc(OC[C@@]34CCCN3C[C@H](F)C4)nc(N3CCCC4(CC(=O)N4)C3)n2)C1` (stereo partly drawn) [Compound 130, 2-amino-1′-[4-[[(2R,8S)-2-fluoro-1,2,3,5,6,7-hexahydropyrrolizin-8-yl]methoxy]-6-(2-oxo-1,8-diazaspiro[3.5]nonan-8-yl)-1,3,5-triazin-2-yl]spiro[5,6-dihydrocyclopenta[b]thiophene-4,3′-azetidine]-3-carbonitrile], which IC50 [1] is on record?
The IC50 was less than 10 nM.

What about the IC50 [2] of the same compound?
The IC50 was less than 10 nM.

And the IC50 ([3]; GP2d, 3 h, Table 4)?
Its IC50 is 100 to 1000 nM.

And the IC50 [4]?
Its IC50 is 1000 to 20000 nM.

`CC(c1cncnc1N)N(C)c1nc(OC[C@@]23CCCN2C[C@H](F)C3)nc(N2CC3(CCc4sc(N)c(C#N)c43)C2)n1` (stereo partly drawn) [Compound 108, 2-amino-1′-[4-[1-(4-aminopyrimidin-5-yl)ethyl-methyl-amino]-6-[[(2R,8S)-2-fluoro-1,2,3,5,6,7-hexahydropyrrolizin-8-yl]methoxy]-1,3,5-triazin-2-yl]spiro[5,6-dihydrocyclopenta[b]thiophene-4,3′-azetidine]-3-carbonitrile] was tested. Which IC50 [1] did it give?
The IC50 was less than 10 nM.

And the IC50 [2]?
The IC50 was less than 10 nM.

And the IC50 ([3]; GP2d, 3 h, Table 4)?
Its IC50 is 10 to 100 nM.

And the IC50 [4]?
The IC50 was 10 to 100 nM.

For `CCN(c1nc(OC[C@@]23CCCN2C[C@H](F)C3)nc(N2CC3(C2)SCc2sc(N)c(C#N)c23)n1)C(C)c1nccnc1N` (single isomer, unassigned) [Compound 168A, 2-amino-1′-[4-[[(1*)-1-(3-aminopyrazin-2-yl)ethyl]-ethyl-amino]-6-[[(2R,8S)-2-fluoro-1,2,3,5,6,7-hexahydropyrrolizin-8-yl]methoxy]-1,3,5-triazin-2-yl]spiro[6H-thieno[3,4-b]thiophene-4,3′-azetidine]-3-carbonitrile], which IC50 [1] is on record?
The IC50 was less than 10 nM.

And the IC50 [2]?
The IC50 was less than 10 nM.

And the IC50 ([3]; Table 4, 3 hours)?
Its IC50 is less than 10 nM.

What about the IC50 [4] of the same compound?
Its IC50 is less than 10 nM.

What does the source list for `CC(c1nsnc1N)N(C)c1nc(OC[C@@]23CCCN2C[C@H](F)C3)nc(N2CC3(C2)SCc2sc(N)c(C#N)c23)n1` (stereo partly drawn) [Compound 174, 2-amino-1′-[4-[1-(4-amino-1,2,5-thiadiazol-3-yl)ethyl-methyl-amino]-6-[[(2R,8S)-2-fluoro-1,2,3,5,6,7-hexahydropyrrolizin-8-yl]methoxy]-1,3,5-triazin-2-yl]spiro[6H-thieno[2,3-c]thiophene-4,3′-azetidine]-3-carbonitrile]?
IC50 [1]: < 10 nM; IC50 [2]: < 10 nM; IC50 ([3]; GP2d, 3 h, Table 4): 10 to 100 nM; IC50 [4]: < 10 nM

`CC(c1nccnc1N)N(C)c1nc(OC[C@@]23CCCN2C[C@H](F)C3)nc(N2CC3(CCc4sc(N)c(C#N)c43)C2)n1` (single isomer, unassigned) [Compound 116A, 2-amino-1′-[4-[[(1*)-1-(3-aminopyrazin-2-yl)ethyl]-methyl-amino]-6-[[(2R,8S)-2-fluoro-1,2,3,5,6,7-hexahydropyrrolizin-8-yl]methoxy]-1,3,5-triazin-2-yl]spiro[5,6-dihydrocyclopenta[b]thiophene-4,3′-azetidine]-3-carbonitrile] was tested. Which IC50 [1] did it give?
The IC50 was less than 10 nM.

And the IC50 [2]?
Its IC50 is less than 10 nM.

And the IC50 ([3]; GP2d, 3 h, Table 4)?
The IC50 was 10 to 100 nM.

What about the IC50 [4] of the same compound?
Its IC50 is 10 to 100 nM.

With `CC(c1cccnc1N)N(C)c1nc(OCCc2nccn2C)nc(N2CC3(CCc4sc(N)c(C#N)c43)C2)n1` (stereo not drawn) [Compound 117, 2-amino-1′-[4-[1-(2-amino-3-pyridyl)ethyl-methyl-amino]-6-[2-(1-methylimidazol-2-yl)ethoxy]-1,3,5-triazin-2-yl]spiro[5,6-dihydrocyclopenta[b]thiophene-4,3′-azetidine]-3-carbonitrile] as the compound, how does the IC50 [1] read?
The IC50 was 100 to 1000 nM.

And the IC50 [2]?
Its IC50 is 10 to 100 nM.

What about the IC50 ([3]; GP2d, 3 h, Table 4) of the same compound?
Its IC50 is 100 to 1000 nM.

And the IC50 [4]?
The IC50 was 100 to 1000 nM.

`CC(c1cccnc1O)N(C)c1nc(OC[C@@]23CCCN2C[C@H](F)C3)nc(N2CC3(CCc4sc(N)c(C#N)c43)C2)n1` (stereo partly drawn) [Compound 138, 2-amino-1′-[4-[[(2R,8S)-2-fluoro-1,2,3,5,6,7-hexahydropyrrolizin-8-yl]methoxy]-6-[1-(2-hydroxy-3-pyridyl)ethyl-methyl-amino]-1,3,5-triazin-2-yl]spiro[5,6-dihydrocyclopenta[b]thiophene-4,3′-azetidine]-3-carbonitrile] was tested. Which IC50 [1] did it give?
The IC50 was 100 to 1000 nM.

What about the IC50 [2] of the same compound?
Its IC50 is 1000 to 20000 nM.

And the IC50 ([3]; GP2d, 3 h, Table 4)?
Its IC50 is 1000 to 20000 nM.

And the IC50 [4]?
Its IC50 is 1000 to 20000 nM.
